Measured values from patent US11584762B1, “Near-infrared fluorescent indicators for lysosome and application thereof” (DALIAN UNIVERSITY OF TECHNOLOGY, priority 2022, dated 2023).

How the values were obtained:
[1] = Emission in 2 mM CTAB (pH 3) or H2O (pH 7); type: physicochemical; conditions: for Fluorescence emission in 2 mM CTAB at pH 3 / Fluorescence emission in water at pH 7: Table 2; for Emission in 2 mM CTAB at pH 3 / Fluorescence in water at pH 7: FIG. 1, 1 μM; for Emission in 2 mM CTAB at pH 3: pH 3, lysosome-like microenvironment; for Fluorescence in water at pH 7: H2O
Description: The properties of compounds D1, D2, D25 and D26 were investigated. Compounds D1, D2, D25 and D26 were dissolved in DMSO to obtain a 1 mM stock solution. The stock solution was further diluted with 2 mM CTAB (pH 3) or H2O (pH 7) to obtain a 1 μM testing solution. The absorption spectrum and emission spectrum of the testing solution were measured. The evaluated method of photophysical properties was the same as example 13.
CTAB (Hexadecyl trimethyl ammonium bromide) is a cationic surfactant with a critical micelle concentration of 0.9 mM. CTBA exists in the form of micelles in a 2 mM solution of CTAB, which not only helps dissolve dye molecules but also simulates the acidic microenvironment of lysosomes. […] It is preliminarily determined that such property is in favor of confocal imaging of lysosomes without PBS washing.
(§1) The photophysical properties of compounds D6, D15, D20, D22, D46 and D51 are provided in Table 2, following a similar testing method as example 14 and example 15. […] It can be seen that such property is in favor of confocal imaging of lysosomes without PBS washing.

[2] = system: lysosomes of RAW 264.7 cells; assay: Confocal imaging of live cell lysosomes co-stained with DND-26; type: cell-based; conditions: co-stain 1 μM DND-26, PBS washed
Description: The fluorescent imaging of compounds D1, D6, D22 and D25. After incubating for 24 hours in a cell incubator with 5% CO2 at 37° C., RAW 264.7 cells were incubated with 1 μM D1 or 1 μM D6 for 5 min, or incubated with 1 μM D22 or 1 μM D25 for 60 min, then incubated with 1 μM DND-26 which is green lysosome probe for 5 min, washed three times with PBS, then imaged using a confocal microscope.
The fluorescence image of compounds D15, D20, D46 and D51. After incubating for 24 hours in a cell incubator with 5% CO2 at 37° C., RAW 264.7 cells were incubated with 1 μM D15 or 1 μM D20 for 5 min, or incubated with 1 μM D46 or 1 μM D51 for 60 min, then incubated with 1 μM DND-26 for 5 min, washed three times with PBS, and then imaged using a confocal microscope.

[3] = Photophysical properties in acetonitrile (absorption, emission, extinction coefficient, quantum yield); type: physicochemical
Description: The photophysical properties of compounds D1, D2, D25 and D26 were investigated. Compounds D1, D2, D25 and D26 were dissolved in DMSO to obtain a 1 mM stock solution. The stock solution was further diluted with acetonitrile to obtain a 1 μM testing solution, of which 1 μL trifluoroacetic acid (0.1% by volume) was added. The absorption spectrum, emission spectrum, quantum yield and molar extinction coefficient of these testing solutions were measured. The absorption spectrum was recorded on Agilent 8453 UV-Vis-Spectrophotometer, and the fluorescent spectrum was recorded on an Agilent fluorescence spectrometer. The maximum absorption spectrum (λab), the maximum emission spectrum (λem), the molar extinction coefficient (ε), and the fluorescence quantum yield (Φ^1) of compounds D1, D2, D25 and D26 were shown in Table 1.
as §1

[4] = system: lysosomal membrane of RAW 264.7 cells; assay: STED-based super-resolution imaging; type: cell-based; conditions: 250 nM for 60 min
Description: We used D25 as a representative to evaluate its ability to perform STED-based super-resolution imaging. After incubating for 24 hours in a cell incubator with 5% CO2 at 37° C., RAW 264.7 cells were stained with 250 nM D25 for 60 min and imaged using STED based microscope after replacing the staining solution with fresh MEM.

[5] = system: lysosomes of RAW 264.7 cells; assay: Confocal imaging of live cell lysosomes without washing; type: cell-based; conditions: 100 nM for 60 min, no washing
Description: The fluorescence image of compound D25. After incubating for 24 hours in a cell incubator with 5% CO2 at 37° C., RAW 264.7 cells were incubated with 100 nM D25 for 60 min and then imaged using a confocal microscope.

[6] = Confocal imaging of stained vesicles at pH 4.0 and pH 7.4; conditions: 60 min
Description: We further investigate the targeting feature by imaging vesicles stained with D25 at pH 4.0 and pH 7.4.
The “droplet transfer” method was used to prepare vesicles composed of PC/Chol molar ratios of 7:3, following six steps as below: 1) Prepare 200 mM glucose aqueous solution and sucrose aqueous solution respectively. 2) Hydrophobic phase (0.3 mM PC in decane+0.3 mM CL in decane for PC/CL). 3) The hydrophobic phase was prepared by adding PC (0.3 mM) and possibly other lipids (SM and/or Chol) in decane. 4) Pipette the aqueous phase consisting of 20 μL of sucrose solution and the hydrophobic phase consisting of 600 μL PC/CL into a 1.5 ml centrifuge tube and shake them well. 5) Centrifuge the tube, then remove the mineral oil and wash the GUVs to remove excess solutes. 6) Suspend 30 μL of the pellet in 20 μL of 200 mM glucose solution. 7) Pipette 20 μL onto a glass slide and observe with a confocal microscope and fluorescence lifetime microscope.
Method for vesicles imaging, 30 μL of the vesicles was diluted with 20 μL of 200 mM glucose solution, then stained with D25 in pH 4 PBS (or in pH 7.4 PBS) for 60 min and imaged with a confocal microscope.

[7] = system: lysosomes of RAW 264.7 cells; assay: Confocal imaging of lysosomes after chloroquine stimulation; type: cell-based; conditions: 1 μM, co-staining D25 and DND-26, 20 µM chloroquine, within 5 min
Description: The fluorescence imaging of compound D25. After incubating for 24 hours in a cell incubator with 5% CO2 at 37° C., RAW 264.7 cells were incubated with 1 μM D25 for 60 min, then incubated with 1 μM DND-26 for 5 min, washed three times with PBS, and then imaged using a confocal microscope after adding 20 µM chloroquine. Chloroquine can cause protons to escape from lysosomes, so it can be used to raise the pH of the lysosomes.

[8] = Table 1, acetonitrile, 1 μM, trifluoroacetic acid 0.1% by volume

| Structure (SMILES) | Fluorescence emission in 2 mM CTAB at pH 3 [1] | Fluorescence emission in water at pH 7 [1] | Lysosome targeting in confocal images ([2]; 1 μM for 60 min) | Φ^1 (fluorescence quantum yield) ([3]; Table 2, in acetonitrile) | ε (molar extinction coefficient) ([3]; Table 2, in acetonitrile) [M^−1 · cm^−1 × 10^4] | λab (maximum absorption) ([3]; Table 2, in acetonitrile) [nm] | λem (maximum emission) ([3]; Table 2, in acetonitrile) [nm] | Emission in 2 mM CTAB at pH 3 [1] | Fluorescence in water at pH 7 [1] | Φ^1 (fluorescence quantum yield) ([3]; Table 1, acetonitrile) | ε (molar extinction coefficient) ([3]; Table 1, acetonitrile) [M^−1 · cm^−1 × 10^4] | λab (maximum absorption) [3, 8] [nm] | λem (maximum emission) [3, 8] [nm] | Lysosome targeting in confocal images ([2]; 1 μM for 5 min) | Localization in super-resolution image [4] | Lysosome imaging without washing [5] | Fluorescence of stained vesicles at pH 4 ([6]; pH 4 PBS) | Fluorescence of stained vesicles at pH 7.4 ([6]; pH 7.4 PBS) | Change of fluorescence intensity after adding chloroquine [7] |
| --- | --- | --- | --- | --- | --- | --- | --- | --- | --- | --- | --- | --- | --- | --- | --- | --- | --- | --- | --- |
| CCOC(=O)CCC1=C2C(C)=CC(C)=[N+]2[B-](F)(F)n2c(C=Cc3ccc4c(c3)c3ccccc3n4Cc3cn(CCCN(C)CCN(C)C)nn3)cc(C)c21 [D22] | Stable | No | can specifically target lysosomes | 0.81 | 10.8 | 611 | 661 |  |  |  |  |  |  |  |  |  |  |  |  |
| CC1=C(Cl)C(C=Cc2ccc3c(c2)c2ccccc2n3Cc2cn(CCN(C)CCN(C)C)nn2)=[N+]2C1=C(c1ccccc1)c1c(C)c(Cl)c(C=Cc3ccc4c(c3)c3ccccc3n4Cc3cn(CCN(C)CCN(C)C)nn3)n1[B-]2(F)F [D26] |  |  |  |  |  |  |  | stable emission | almost no fluorescence | 0.72 | 11.3 | 692 | 732 |  |  |  |  |  |  |
| CC1=CC(C)=[N+]2C1=C(c1ccccc1)c1c(C)cc(C=Cc3ccc4c(c3)c3ccccc3n4Cc3cn(CCN(C)CCN(C)C)nn3)n1[B-]2(F)F [D1] |  |  |  |  |  |  |  | stable emission | almost no fluorescence | 0.83 | 7.5 | 581 | 603 | can specifically target lysosomes |  |  |  |  |  |
| CCOC(=O)CCC1=C2C(C)=CC(/C=C/c3ccc4c(c3)c3ccccc3n4Cc3cn(CCCN(C)CCN(C)C)nn3)=[N+]2[B-](F)(F)n2c(/C=C/c3ccc4c(c3)c3ccccc3n4Cc3cn(CCCN(C)CCN(C)C)nn3)cc(C)c21 [D46] | Stable | No | can specifically target lysosomes | 0.89 | 11.0 | 659 | 675 |  |  |  |  |  |  |  |  |  |  |  |  |
| CC1=C(Cl)C(C)=[N+]2C1=C(c1ccccc1)c1c(C)c(Cl)c(C=Cc3ccc4c(c3)c3ccccc3n4Cc3cn(CCN(C)CCN(C)C)nn3)n1[B-]2(F)F [D2] |  |  |  |  |  |  |  | stable emission | almost no fluorescence | 0.63 | 10.4 | 604 | 650 |  |  |  |  |  |  |
| CC1=C(Cl)C(C)=[N+]2C1=C(c1ccc(C)cc1)c1c(C)c(Cl)c(C=Cc3ccc4c(c3)c3ccccc3n4Cc3cn(CCN4CCNCC4)nn3)n1[B-]2(F)F [D6] | Stable | No |  | 0.73 | 8.1 | 590 | 615 |  |  |  |  |  |  | can specifically target lysosomes |  |  |  |  |  |
| COc1ccc(C2=C3C(C)=C(Cl)C(C=Cc4ccc5c(c4)c4ccccc4n5Cc4cn(CCN5CCNCC5)nn4)=[N+]3[B-](F)(F)n3c(C=Cc4ccc5c(c4)c4ccccc4n5Cc4cn(CCN5CCNCC5)nn4)c(Cl)c(C)c32)cc1 [D51] | Stable | No | can specifically target lysosomes | 0.79 | 11.1 | 689 | 728 |  |  |  |  |  |  |  |  |  |  |  |  |
| CC1=CC(C=Cc2ccc3c(c2)c2ccccc2n3Cc2cn(CCN(C)CCN(C)C)nn2)=[N+]2C1=C(c1ccccc1)c1c(C)cc(C=Cc3ccc4c(c3)c3ccccc3n4Cc3cn(CCN(C)CCN(C)C)nn3)n1[B-]2(F)F [D25] |  |  | can specifically target lysosomes |  |  |  |  | stable emission | almost no fluorescence | 0.94 | 9.2 | 664 | 684 |  | localized in the lysosomal membrane | can be used for lysosome images without washing | intense fluorescence | weak fluorescence | only changed slightly |
